Here are results for four molecules from patent publication US8524740B2, “Synthesis and anticancer activity of aryl and heteroaryl-quinolin derivatives” (Tairx, Inc., priority 2010, dated 2013).

For series [1] the following is noted: previous report; cited from earlier work.
For series [2] the following is noted: oral and intravenous administration (CHM-2133-P); cited from earlier work.
For a further series, the system named is DU145. The series is described as follows: MTT assay, DU145 cells. It is filed as cell-based. Particulars: Homo sapiens, DU-145, Table 5. Here is the method:
(§1) MTT (3-(4,5-Dimethylthiazol-2-yl)-2,5-diphenyltetrazolium bromide) assays. HL-60, HCT-116, A549, Hep 3B, KB, Kb-VIN and DU145 cells were treated with tested compounds for the indicated periods. After treatment, cells were washed once with PBS and incubated with MTT (Sigma, St. Louis, Mo., USA) for 2 h. The formazan precipitate was dissolved in 150 μL of DMSO, and the absorbance was measured with an ELISA reader at 570 nm.

The test system of another series is Kb-VIN. The series is described as follows: MTT assay, Kb-VIN cells. Particulars: Homo sapiens, KBVIN, Table 5. It is filed as cell-based. Here is the method: as §1
On the technique in general: Tetrazolium assays rely on reduction of a dye to a coloured formazan, in cell work by metabolically active cells.

Another series relates to HCT116. The experiment in a line: MTT assay, HCT-116 cells. In kind it is cell-based. Particulars: Homo sapiens, Table 5. The essentials: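 Cells exposed to compounds for the indicated periods, washed with PBS, then incubated 2 h with MTT. Formazan dissolved in DMSO and absorbance read at 570 nm.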
Another series relates to Hep3B. The experiment in a line: MTT assay, Hep 3B cells. In kind it is cell-based. Particulars: Homo sapiens. The method, boiled down: (§2)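 Cells exposed to compounds for 48 h (other runs: indicated periods), then washed with PBS and given MTT for 2 h. Formazan dissolved in DMSO and read at 570 nm as a measure of cell growth.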
For another series, the system named is A549. The experiment in a line: MTT assay, A549 cells. It is filed as cell-based. Particulars: Homo sapiens, Table 5. Here is the method: as §1
In another series the test system is HL-60. The experiment in a line: MTT assay, HL-60 cells. Particulars: Homo sapiens. In kind it is cell-based. The essentials: as §2
In a further series the test system is KB. The experiment in a line: MTT assay, KB cells. In kind it is cell-based. Particulars: Homo sapiens, Table 5. Here is the method:
as §1

Another series has as its system A498. The series is described as follows: MTT assay, A498 cells. In kind it is cell-based. Particulars: Homo sapiens, Table 6. Here is the method: (§3) MTT (3-(4,5-Dimethylthiazol-2-yl)-2,5-diphenyltetrazolium bromide) assays. HL-60, Hep 3B, H460, A498, Colo205 and Detroit 551 cells were treated with tested compounds for the indicated periods. After treatment, cells were washed once with PBS and incubated with MTT (Sigma, St. Louis, Mo., USA) for 2 h. The formazan precipitate was dissolved in 150 μL of DMSO, and the absorbance was measured with an ELISA reader at 570 nm.

For another series, the system named is Detroit 551. The experiment in a line: MTT assay, Detroit 551 normal human cells. Particulars: Homo sapiens, Detroit 551; Table 6; MTT. In kind it is cell-based. The method, boiled down: (§4)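 H460 and Detroit 551 cells exposed to test compounds for 48 h (vehicle control); growth measured by MTT reduction, 2 h MTT incubation, formazan dissolved in DMSO, absorbance at 570 nm.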

The test system of another series is H460. The series is described as follows: MTT assay, H460 cells. Particulars: Homo sapiens, NCI-H460; Table 6; MTT. In kind it is cell-based. The method, boiled down: as §4
The next series concerns Colo205. The experiment in a line: MTT assay, Colo205 cells. It is filed as cell-based. Particulars: Homo sapiens, COLO 205, Table 6. Here is the method: as §3

For `O=P(O)(O)Oc1cc(-c2ccccc2F)nc2cc3c(cc12)OCO3` [CHM-2133-P], the bio-conversion following administration result in [1] is reported as “rapid bio-conversion into its active molecule CHM-2133”. The “antitumor activity in vivo (earlier work)” value in series [2] is reported as “excellent antitumor activity”.

On to `O=c1cc(-c2cccc3ccccc23)[nH]c2cc3c(cc12)OCO3` [Compound 151, 2-(1-Naphthalenyl)-6,7-methylenedioxyquinolin-4-one], for which the IC50 was 130 nM in the series on DU145; 190 nM with Kb-VIN; 70 nM in the series on HCT116; 70 nM with Hep3B (Table 5, MTT); 130 nM with A549; 70 nM in the series with HL-60 (Table 5, MTT). Half-maximal inhibition in the series with KB (IC50) required 130 nM.

`O=c1cc(-c2coc3ccccc23)[nH]c2cc3c(cc12)OCO3` [Compound 156, 2-(3-Benzo[b]furyl)-6,7-methylenedioxyquinolin-4-one]: the 50% inhibitory concentration (IC50) in the series with DU145 was found to be 1870 nM; in the series on Kb-VIN, 590 nM; in the series on HCT116, 50 nM; in the series with Hep3B (Table 5, MTT) it was 90 nM; with A549 it was 2980 nM; in the series on HL-60 (Table 5, MTT), 30 nM. In addition, the 50% inhibitory concentration (IC50) in the series on KB was 1050 nM.

`COc1cc(O)cc(-c2cc(=O)c3cc4c(cc3[nH]2)OCO4)c1` [Compound 166, 2-(3-Hydroxy-5-methoxyphenyl)-6,7-methylenedioxyquinolin-4-one] displayed a melting point above 300 °C. In addition, the half-maximal inhibitory concentration (IC50) with A498 was above 50000 nM. This molecule also registered an IC50 in the series with Detroit 551 above 50000 nM. In addition, the IC50 with H460 is above 50000 nM. This molecule also registered an IC50 in the series with Hep3B (Table 6, MTT) above 50000 nM. The molecule further had an IC50 in the series with HL-60 (Table 6, MTT) of 400 nM. Also, the IC50 in the series on Colo205 is above 50000 nM.

In general, IC50 refers to the point on the concentration scale where inhibition reaches its midpoint. The term melting point denotes the temperature of the solid-liquid transition.
